One molecule from patent US10112943B2, “Substituted imidazoles as gamma secretase modulators” (Janssen Pharmaceutica NV, priority 2012, dated 2018) can be followed below.

The test system of one assay is Aβ40. In words: In vivo efficacy: brain levels of soluble Aβ40 in non-transgenic rodents (MSD electrochemiluminescence). Conditions: dose 30 mg/kg oral dosing, soluble fraction, untreated animals (Ctrl) set at 100, typical protocol 4 h after dose. Also on record: species or system mouse. The text has this: To determine whether acute administration of an Aβ42 lowering agent would reduce Aβ42 levels in vivo, non-transgenic rodents, e.g. mice or rats were used. Animals treated with the Aβ42 lowering agent were examined and compared to those untreated or treated with vehicle and brain levels of soluble Aβ42, Aβ40, Aβ38, and Aβ37 were quantitated by Meso Scale Discovery's (MSD) electrochemiluminescence detection technology. Treatment periods varied from hours (h) to days and were adjusted based on the results of the Aβ42 lowering once a time course of onset of effect could be established.
A typical protocol for measuring Aβ42 lowering in vivo is shown but it is only one of many variations that could be used to optimize the levels of detectable Aβ. […] After 4 h, the animals were sacrificed and Aβ42 levels were analysed.
Blood was collected by decapitation and exsanguinations in EDTA-treated collection tubes. […] The left hemisphere was stored at −18° C. for quantitative analysis of test compound levels. […]
Mouse brains from non-transgenic animals were resuspended in 8 volumes of 0.4% DEA (diethylamine)/50 mM NaCl containing protease inhibitors (Roche-11873580001 or 04693159001) per gram of tissue, e.g. for 0.158 g brain, add 1.264 ml of 0.4% DEA. […] Nine parts of supernatant were neutralized with 1 part 0.5 M Tris-HCl pH 6.8 and used to quantify Aβ. […]

The target in another assay is T1, γ-secretase (Homo sapiens, UniProt P49768).
T1 construct: endogenous in cells; host or cells: SKNBE2 human neuroblastoma cells carrying hAPP 695 wild type
The assay is described as follows: Screening for γ-secretase-modulating activity: Aβ42 in cell supernatant (Alphalisa sandwich immuno-assay). Conditions: SKNBE2 human neuroblastoma cells carrying hAPP 695-wild type, overnight incubation. The class given is cell-based. The method, then:
A) Screening of the Compounds of the Invention for γ-Secretase-Modulating Activity
Screening was carried out using SKNBE2 human neuroblastoma cells carrying the hAPP 695-wild type, grown in Dulbecco's Modified Eagle's Medium/Nutrient mixture F-12 (DMEM/NUT-mix F-12) (HAM) provided by Invitrogen (cat no. 10371-029) containing 5% Serum/Fe supplemented with 1% non-essential amino acids, 1-glutamine 2 mM, Hepes 15 mM, penicillin 50 U/ml (units/ml) and streptomycin 50 μg/ml. Cells were grown to near confluency.
The screening was performed using a modification of the assay as described in Citron et al (1997) Nature Medicine 3: 67. Briefly, cells were plated in a 384-well plate at 10^4 cells/well in Ultraculture (Lonza, BE12-725F) supplemented with 1% glutamine (Invitrogen, 25030-024), 1% non-essential amino acid (NEAA), penicillin 50 U/ml en streptomycin 50 μg/ml in the presence of test compound at different test concentrations. The cell/compound mixture was incubated overnight at 37° C., 5% CO2. The next day the media were assayed by two sandwich immuno-assays, for Aβ42 and Aβtotal.
Aβtotal and Aβ42 concentrations were quantified in the cell supernatant using the Aphalisa technology (Perkin Elmer). Alphalisa is a sandwich assay using biotinylated antibody attached to streptavidin coated donorbeads and antibody conjugated to acceptor beads. In the presence of antigen, the beads come into close proximity. The excitation of the donor beads provokes the release of singlet oxygen molecules that trigger a cascade of energy transfer in the acceptor beads, resulting in light emission. To quantify the amount of Aβ42 in the cell supernatant, monoclonal antibody specific to the C-terminus of Aβ42 (JRF/cAβ42/26) was coupled to the receptor beads and biotinylated antibody specific to the N-terminus of Aβ (JRF/AβN/25) was used to react with the donor beads. To quantify the amount of Aβtotal in the cell supernatant, monoclonal antibody specific to the N-terminus of Aβ (JRF/AβN/25) was coupled to the receptor beads and biotinylated antibody specific to the mid region of Aβ (biotinylated 4G8) was used to react with the donor beads.
To obtain the values reported in Table 3, the data are calculated as percentage of the maximum amount of amyloid Beta 42 measured in the absence of the test compound.
The sigmoidal dose response curves were analyzed using non-linear regression analysis with percentage of the control plotted against the log concentration of the compound. A 4-parameter equation was used to determine the IC50.
For orientation: In Alpha technology, singlet oxygen from a donor bead excites a nearby acceptor bead.

For `Cc1cn(-c2ccc3n(c2=O)C[C@@H]2CC[C@@H](Cc4cc(C(F)(F)F)cc(C(F)(F)F)c4)N2C3=O)cn1` (single isomer, unassigned) [Compound 4, 3-[[3,5-bis(trifluoromethyl)phenyl]methyl]-2,3,11,11a-tetrahydro-8-(4-methyl-1H-imidazol-1-yl)-1H-pyrido[1,2-a]pyrrolo[1,2-d]pyrazine-5,9-dione ((3S, 11aS) or (3R, 11aR))], in the assay with Aβ40, the “Aβ40 (% vs Ctrl) _Mean” value is listed as 69 % vs Ctrl. This molecule had an IC50 on γ-secretase of 50 nM.

One may read the IC50 as the concentration needed to halve the response being measured. Read a high IC50 as weaker potency.
